A word on the IC50: it is the midpoint of a concentration-inhibition curve.

The structures appear in SMILES notation. Where two headings read alike, the source gives them in different places. Where a SMILES comes first, the peptide text is derived from it. Bridges are numbered along the chain shown (N, C = ends). [ ]: non-standard residue; d: D form. hArg = N=C(N)NCCCC[C@H](N)C(=O)O; Mpa = O=C(O)CCS Bounds are passed on as bounds.

We go through one compound from US20080182781A1, “Process for the Preparation of Peptides” (priority 2004, published 2008).

The test system of the test is ADP induced platelet aggregation. It is filed as cell-based. Conditions: human PRP. The procedure:
The bioactivity of peptide of formula (1) is checked using platelet aggregation inhibition assay using 4× Laser Aggregometer (EMA). Freshly venous Blood from consented human donors are drawn and collected in citrated buffer. The platelet rich plasma (PRP) and platelet poor plasma are separated by centrifugation. Platelet count in PRP is adjusted to 2-3×10^8 platelets/ml. After adjusting the baseline aggregation with PPP, the PRP was treated with […] ADP and checked the percent total aggregation. The PRP is then first incubated with varying concentrations of reference standard and synthesized peptide of formula (1). ADP is then added to check the inhibition of aggregation. The reproducibility of bioactivity of synthesized peptide of formula 1 is checked several times and compared with reference standards.

Turning to `N=C(N)NCCCC[C@@H]1NC(=O)CCSSC[C@@H](C(N)=O)NC(=O)[C@@H]2CCCN2C(=O)[C@H](Cc2c[nH]c3ccccc23)NC(=O)[C@H](CC(=O)O)NC(=O)CNC1=O` [SP of formula 1] ([Mpa][hArg]GDWPC-NH2; disulfide 1-7), the “% Inhibition of ADP induced aggregation” value was 44.6% (Donor 1, 140 nM); 61.40% (Donor 1, 280 nM); 46.66% (Donor 2, 70 nM); 51.16% (Donor 2, 140 nM); 67.74% (Donor 2, 280 nM); 57.42% (Donor 3, 70 nM). Also, the “% Inhibition of ADP induced aggregation” value is, setting by setting: (Donor 3, 140 nM) 60.28%; (Donor 4, 140 nM) 20.52%; (Donor 4, 280 nM) 42.73%; (Donor 5, 70 nM) 52.63%; (Donor 5, 140 nM) 87.21%; (Donor 6, 140 nM) 82.92%. Also, the concentration for half-maximal inhibition (IC50) (12 experiments, read-out: IC50 dose, inhibition of ADP induced platelet aggregation) is below 140 nM. Also, the “inhibition of ADP induced platelet aggregation” value (seen in most of the samples) is “more than 50%”.
